Measured values published in the supplement of paper PMC10307832.

What was measured:
Assay in all cases: relative viability (nuclei count vs DMSO), 5 days (fraction); higher = more cells survive
Linifanib + Palbociclib = compound: Cc1ccc(F)c(NC(=O)Nc2ccc(-c3cccc4[nH]nc(N)c34)cc2)c1 [Linifanib] + CC(=O)c1c(C)c2cnc(Nc3ccc(N4CCNCC4)cn3)nc2n(C2CCCC2)c1=O [Palbociclib] (partner 0.5 µM)
Outline: (§1)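 Dosing by pin tool came one day after lung cancer cell lines were seeded in 1536-well plates, using either one drug or a fixed anchor-drug dose plus five library-drug doses (not always all listed) in √10 steps. After 5 days, nuclei were counted on 4× images. Relative viability is treated-well nuclei count divided by vehicle-well nuclei count, and values are medians of duplicate plates.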

Linifanib + Navitoclax = compound: Cc1ccc(F)c(NC(=O)Nc2ccc(-c3cccc4[nH]nc(N)c34)cc2)c1 [Linifanib] + CC1(C)CCC(c2ccc(Cl)cc2)=C(CN2CCN(c3ccc(C(=O)NS(=O)(=O)c4ccc(N[C@H](CCN5CCOCC5)CSc5ccccc5)c(S(=O)(=O)C(F)(F)F)c4)cc3)CC2)C1 [Navitoclax] (partner 0.5 µM)
Outline: as §1

Linifanib + Foretinib = compound: Cc1ccc(F)c(NC(=O)Nc2ccc(-c3cccc4[nH]nc(N)c34)cc2)c1 [Linifanib] + COc1cc2c(Oc3ccc(NC(=O)C4(C(=O)Nc5ccc(F)cc5)CC4)cc3F)ccnc2cc1OCCCN1CCOCC1 [Foretinib] (partner 0.25 µM)
Outline: as §1

Linifanib + Pictilisib = compound: Cc1ccc(F)c(NC(=O)Nc2ccc(-c3cccc4[nH]nc(N)c34)cc2)c1 [Linifanib] + CS(=O)(=O)N1CCN(Cc2cc3nc(-c4cccc5[nH]ncc45)nc(N4CCOCC4)c3s2)CC1 [Pictilisib] (partner 1 µM)
Outline: as §1

Linifanib + Linsitinib = compound: Cc1ccc(F)c(NC(=O)Nc2ccc(-c3cccc4[nH]nc(N)c34)cc2)c1 [Linifanib] + C[C@]1(O)C[C@@H](c2nc(-c3ccc4ccc(-c5ccccc5)nc4c3)c3c(N)nccn32)C1 [Linsitinib] (partner 1 µM)
Outline: as §1

Linifanib + Pemetrexed = compound: Cc1ccc(F)c(NC(=O)Nc2ccc(-c3cccc4[nH]nc(N)c34)cc2)c1 [Linifanib] + Nc1nc2[nH]cc(CCc3ccc(C(=O)N[C@@H](CCC(=O)O)C(=O)O)cc3)c2c(=O)[nH]1 [Pemetrexed] (partner 0.2 µM)
Outline: as §1

Row | Cell Line | relative viability (Linifanib + Palbociclib; first compound 0.03162 µM) | relative viability (Linifanib + Palbociclib; first compound 0.1 µM) | relative viability (Linifanib + Palbociclib; first compound 0.3162 µM) | relative viability (Linifanib + Navitoclax; first compound 0.03162 µM) | relative viability (Linifanib + Navitoclax; first compound 0.1 µM) | relative viability (Linifanib + Navitoclax; first compound 0.3162 µM) | relative viability (Linifanib + Foretinib; first compound 0.03162 µM) | relative viability (Linifanib + Foretinib; first compound 0.1 µM) | relative viability (Linifanib + Foretinib; first compound 0.3162 µM) | relative viability (Linifanib + Pictilisib; first compound 0.03162 µM) | relative viability (Linifanib + Pictilisib; first compound 0.1 µM) | relative viability (Linifanib + Pictilisib; first compound 0.3162 µM) | relative viability (Linifanib + Linsitinib; first compound 0.03162 µM) | relative viability (Linifanib + Linsitinib; first compound 0.1 µM) | relative viability (Linifanib + Linsitinib; first compound 0.3162 µM) | relative viability (Linifanib + Pemetrexed; first compound 0.03162 µM) | relative viability (Linifanib + Pemetrexed; first compound 0.1 µM) | relative viability (Linifanib + Pemetrexed; first compound 0.3162 µM)
1 | NCI-H1944 | 0.334 | 0.353 | 0.35 | 1.05 | 1.05 | 0.98 | 0.928 | 0.889 | 0.876 | 0.368 | 0.378 | 0.341 | 1.09 | 1.17 | 1.14 | 0.678 | 0.705 | 0.675
2 | NCI-H1975 | 0.6 | 0.783 | 0.551 | 1.05 | 1.22 | 1.08 | 0.892 | 1.01 | 1.02 | 0.298 | 0.3 | 0.367 | 0.898 | 0.98 | 1.02 | 0.293 | 0.317 | 0.278
3 | NCI-H1993 | 0.688 | 0.826 | 0.725 | 0.806 | 1.01 | 0.971 | 0.807 | 0.88 | 0.758 | 0.838 | 0.77 | 0.963 | 0.749 | 0.691 | 0.788 | 0.642 | 0.627 | 0.637
4 | NCI-H2009 | 0.247 | 0.263 | 0.25 | 1.13 | 1.14 | 1.13 | 1.24 | 1.25 | 1.15 | 0.873 | 0.973 | 0.835 | 1.15 | 1.19 | 1.13 | 1.08 | 0.989 | 0.917
5 | NCI-H2023 | 0.357 | 0.415 | 0.345 | 0.929 | 1.07 | 0.981 | 0.807 | 0.806 | 0.836 | 0.221 | 0.297 | 0.263 | 0.681 | 0.676 | 0.652 | 0.259 | 0.275 | 0.232
6 | NCI-H2085 | 0.485 | 0.474 | 0.463 | 1.04 | 1.12 | 1.11 | 0.979 | 1.12 | 0.806 | 0.426 | 0.711 | 0.484 | 0.895 | 0.913 | 0.835 | 0.907 | 0.942 | 0.917
7 | NCI-H2087 | 0.219 | 0.285 | 0.269 | 0.959 | 1.08 | 0.95 | 1.08 | 1.26 | 0.993 | 0.977 | 0.989 | 0.825 | 1.14 | 1.02 | 0.764 | 0.661 | 0.726 | 0.529
8 | NCI-H2126 | 0.376 | 0.388 | 0.379 | 0.836 | 0.838 | 0.816 | 1.22 | 1.06 | 1.2 | 0.48 | 0.507 | 0.457 | 0.696 | 0.731 | 0.753 | 0.713 | 0.689 | 0.714
